{
  "source": "paper PMC8854719",
  "about": "“Phase 1A/1B dose-escalation and -expansion study to evaluate the safety, pharmacokinetics, food effects and antitumor activity of pamiparib in advanced solid tumours” (British Journal of Cancer, 2021)",
  "system": "epithelial ovarian cancer (EOC)",
  "experiment": "GCIG CA-125 response",
  "type": "in vivo, human",
  "conditions": "CA-125–evaluable population (n=12)",
  "description": "Tumour response was evaluated by RECIST v1.1. For patients with ovarian cancer, tumour response was assessed per RECIST v1.1 and by Gynecologic Cancer Intergroup (GCIG) CA-125 criteria. Tumour response for patients with prostate cancer was assessed by Prostate Cancer Clinical Trials Working Group 2 (PCWG2) criteria. Objective response rate (ORR) was defined as the proportion of patients achieving a confirmed complete response (CR) or partial response (PR) on study treatment. Blood tumour antigens (e.g., carcinoembryonic antigen for colorectal cancer, CA-125 for ovarian cancer and prostate-specific antigen [PSA] for mCRPC) were assessed during screening, every 6 weeks after the first pamiparib dose in the first 12 months, and every 9 weeks thereafter.\nThe safety population comprised all patients in the dose-escalation and dose-expansion phases who received at least one dose of pamiparib (Supplementary Table S2). Patients in the safety analysis set for whom valid pamiparib PK parameters were estimated and for whom evaluable PD results were available represented the PK population and the PD population, respectively. The efficacy-evaluable population included patients in the safety analysis set who had at least one evaluable postbaseline tumour assessment or those who discontinued due to clinical disease progression or early death before tumour assessment could be performed. […]",
  "data": [
    {"molecule": "C[C@]12CCCN1CC1=NNC(=O)c3cc(F)cc4[nH]c2c1c34", "note": "[pamiparib]", "values": [
      {"measurement": "GCIG CA-125 response rate", "result": 83.3, "unit": "%"},
      {"measurement": "Median time to CA-125 response", "result": 1.38, "unit": "months"}
    ]}
  ]
}
